# Assay results published in patent publication US20240415845A1, “Compositions of Iboga Alkaloids and Methods of Treatment” (priority 2022, published 2024).
# Test system: special operations veterans with combat and/or blast exposure
# Test: Hamilton-Anxiety Rating Scale (HAM-A)
# Assay type: in vivo, human
# From the text: The pre-specified primary outcome was change in the World Health Organization Disability Assessment Schedule 2.0 (WHODAS) (Gold L. H. et al., J. Am. Acad. Psychiatry Law 42, 9 (2014)) from baseline to post-treatment, with change from baseline to the one-month follow-up a secondary outcome. Additional pre-specified secondary outcomes included post-treatment changes on the Clinician Administered PTSD Scale (CAPS-5; Weathers, F. W. et al., Psychol. Assess., 30, 383-395 (2018)), Montgomery-Åsberg Depression Rating Scale (MADRS; Montgomery, S. A., Br. J. Psychiatry J. Ment. Sci., 134, 382-389 (1979)) and the Hamilton-Anxiety Rating Scale (HAM-A; Bruss, G. S., et al., Psychiatry Res., 53, 191-202 (1994)). […] An additional dose of magnesium was administered approximately 12 hours later. To assess the significance of post-treatment changes, linear mixed effects (LME) models were used for each outcome measure. False Discovery Rate (FDR; Benjamini, Y. et al., J. R. Stat. Soc. Ser. B Methodol., 57, 289-300 (1995)) was applied to correct for multiple comparisons.
# To further assess changes in comorbid psychiatric symptoms identified by the models, mean percent reduction, response rate, and remission rate according to the CAPS-5, MADRS and HAM-A (Table 1) were calculated. Response on the CAPS-5, MADRS, and HAM-A was defined as a reduction of at least 10 points (Mitchell, J. M. et al., Nat. Med. 27, 1025-1033(2021)), 50% (Leucht, S. et al., J. Affect. Disord. 210, 287-293 (2017)), and 50% (McIntyre, A. et al., Depress. Anxiety 24, 487-494 (2007)), respectively; remission as loss of diagnosis and a total score below 12 (Mitchell, J. M. et al. supra), <8 (Leucht, S. et al. supra), and <8(McIntyre, A. et al., supra), respectively. One participant's baseline scores met criteria for remission in all three scales and so were excluded from the calculation of response and remission rates, leaving 29 participants in these specific analyses.
# With subjects in the fasting state, an intravenous infusion of 1 gram of magnesium sulfate was administered 1-2 hours prior to treatment. […] Medical staff (MD, RN, or EMT) were onsite at a ratio of at least 1 staff per 2 patients throughout treatment for monitoring and management, but no specific coaching or psychological support was provided during treatment.
# Clinician administered scales included CAPS-5 (Clinician-administered PTSD Scale for DSM-5), which is a gold standard assessment of PTSD symptom severity; MADRS (Montgomery-Asberg Depression Rating Scale), a measure for depressive symptom severity: and Hamilton-Anxiety Rating Scale (HAM-A) (Shear, M. K. et al., Depress. Anxiety 13, 166-178 (2001)) a measure for anxiety symptom severity: SCID-5 (Structured Clinical Interview for DSM-5) Overview for a historical and environmental context of symptom presentation: MINI DSM-5 (Mini International Neuropsychiatric Interview from DSM-5) for a structured psychodiagnostics assessment: BAT-L (Boston Assessment of TBI-Lifetime) for a lifetime history of TBI and blast exposure: and Ohio State University TBI Identification Method (Short Form) for a lifetime history of TBI. MADRS testing provides an indication of depressive symptoms, CAPS-5 provides an indication of PTSD and SIGH-A provides an indication of anxiety. Collectively these overlap to provide indication of mood, concentration, sleep and tension.
# To assess anxiety symptoms, the Hamilton Anxiety Rating Scale was used. This scale includes 14-items assessing both psychic and physical symptoms of anxiety. Items are rated on a scale from 0 (no symptoms) to 4 (severe symptoms). Total score ranges were: no or minimal anxiety (≤7), mild (8-14), moderate (15-23), and severe anxiety symptoms (≥24) (Matza et al., Int. J. Methods Psychiatr. Res. 19, 223-232 (2010))).
# [1] = 1-mo. post, only participants meeting relevant MINI diagnostic criteria
# [2] = 1-mo. post, only participants with mild TBI
# [3] = 1-wk. post, only participants meeting relevant MINI diagnostic criteria
# [4] = 1-wk. post, only participants with mild TBI
smiles,measurement,setting,value
"CCC1CC2CC3c4[nH]c5ccc(OC)cc5c4CCN(C2)C13 (stereo not shown) [ibogaine, Ibogaine]",HAM-A % Reduction vs Baseline,[1],80% ± 23%
same,HAM-A Remission Rate,[1],71%
same,HAM-A Response Rate,[1],86%
same,HAM-A score,"1-mo. post, only participants meeting relevant MINI diagnostic criteria at baseline (N 14), baseline 23.8 ± 7.6",5.1
same,HAM-A % Reduction vs Baseline,[2],82% ± 21%
same,HAM-A Remission Rate,[2],85%
same,HAM-A Response Rate,[2],93%
same,HAM-A score,"1-mo. post, only participants with mild TBI (N 28), baseline 20.7 ± 8.6",3.7
same,HAM-A score,"1-wk post, only participants meeting relevant MINI diagnostic criteria at baseline (N 14), baseline 23.8 ± 7.6",4.2
same,HAM-A % Reduction vs Baseline,[3],82% ± 14%
same,HAM-A Remission Rate,[3],86%
same,HAM-A Response Rate,[3],100%
same,HAM-A % Reduction vs Baseline,[4],82% ± 19%
same,HAM-A Remission Rate,[4],89%
same,HAM-A Response Rate,[4],96%
same,HAM-A score,"1-wk. post, only participants with mild TBI (N 28), baseline 20.7 ± 8.6",3.3
same,"HAM-A, effect size D","baseline vs 1-mo. post, only participants meeting relevant MINI diagnostic criteria (N 14)",2.33
same,"HAM-A, effect size D","baseline vs 1-mo. post, only participants with mild TBI (N 28)",2.07
same,"HAM-A, effect size D","baseline vs 1-wk post, only participants with mild TBI (N 28)",2.02
same,"HAM-A, effect size D","baseline vs 1-wk. post, only participants meeting relevant MINI diagnostic criteria (N 14)",2.52
same,"HAM-A, effect size D","baseline vs one-month post, all participants",2.13
same,"HAM-A, effect size D","baseline vs one-week post, all participants",2.06
same,HAM-A anxiety symptom severity score,"four days after (immediate post) treatment, baseline about 21 (FIG. 5A)",about 7
same,HAM-A effect size,four days after treatment relative to baseline (FIG. 5A),1.81
same,subjects scoring below the mild anxiety range (HAM-A),one month post treatment (FIG. 5B),90%
same,HAM-A effect size,one month post treatment relative to baseline (FIG. 5A),1.82
same,HAM-A Remission Rate,"one-month post, 29 participants, remission = score <8",83%
same,HAM-A Response Rate,"one-month post, 29 participants, response = reduction of at least 50%",93%
same,HAM-A score,"one-month post, all participants, baseline 20.8 ± 8.5, mean ± SD",3.9
same,HAM-A % Reduction vs Baseline,"one-month post, all participants, mean ± SD",81% ± 21%
same,HAM-A Remission Rate,"one-week post, 29 participants, remission = score <8",86%
same,HAM-A Response Rate,"one-week post, 29 participants, response = reduction of at least 50%",97%
same,HAM-A score,"one-week post, all participants, baseline 20.8 ± 8.5, mean ± SD",3.6
same,HAM-A % Reduction vs Baseline,"one-week post, all participants, mean ± SD",81% ± 19%
